Test results published in article PMC11233931, “Remodeling tumor‐associated macrophage for anti‐cancer effects by rational design of irreversible inhibition of mitogen‐activated protein kinase‐activated protein kinase 2” (MedComm, 2024).

Legend:
Assay in all cases: Eurofins kinase selectivity profile against 380 other human recombinant kinases (Table S2)
Format in all cases: biochemical
[1] = molecular target: T1, 380 human recombinant protein kinases (Homo sapiens, UniProt O00444); conditions: Plk4(h), read-out: Inhibition rate
T1 construct: purchased Eurofins (Celle Lévescault)
T1 sequence (O00444 1-970): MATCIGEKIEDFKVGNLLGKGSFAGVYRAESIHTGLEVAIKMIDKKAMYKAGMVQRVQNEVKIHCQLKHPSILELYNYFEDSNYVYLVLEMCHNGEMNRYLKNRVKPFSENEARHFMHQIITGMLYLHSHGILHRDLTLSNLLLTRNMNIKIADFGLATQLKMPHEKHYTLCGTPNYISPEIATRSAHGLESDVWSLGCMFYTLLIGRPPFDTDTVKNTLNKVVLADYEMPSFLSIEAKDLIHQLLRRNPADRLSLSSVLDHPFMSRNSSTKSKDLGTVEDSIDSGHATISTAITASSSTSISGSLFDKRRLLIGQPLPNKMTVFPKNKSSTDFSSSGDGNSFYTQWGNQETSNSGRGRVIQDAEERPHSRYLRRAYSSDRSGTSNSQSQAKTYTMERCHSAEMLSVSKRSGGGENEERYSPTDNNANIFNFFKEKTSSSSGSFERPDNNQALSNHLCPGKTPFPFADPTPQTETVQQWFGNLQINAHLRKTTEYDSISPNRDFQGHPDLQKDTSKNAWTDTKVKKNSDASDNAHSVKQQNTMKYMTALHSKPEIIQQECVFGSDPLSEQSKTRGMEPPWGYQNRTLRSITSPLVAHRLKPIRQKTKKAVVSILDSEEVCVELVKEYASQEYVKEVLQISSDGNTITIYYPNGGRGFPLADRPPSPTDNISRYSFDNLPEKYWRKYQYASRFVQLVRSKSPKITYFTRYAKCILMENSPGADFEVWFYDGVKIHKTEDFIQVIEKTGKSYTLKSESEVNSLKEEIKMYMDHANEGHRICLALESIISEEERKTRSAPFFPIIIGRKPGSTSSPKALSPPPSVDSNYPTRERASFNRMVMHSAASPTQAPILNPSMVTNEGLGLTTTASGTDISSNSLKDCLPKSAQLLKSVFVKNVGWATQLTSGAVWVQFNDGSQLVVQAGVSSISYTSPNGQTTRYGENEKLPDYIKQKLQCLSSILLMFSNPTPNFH
Procedure, shortened: (§1)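 The inhibitor was sent to a contract lab and screened at various concentrations against 380 human recombinant protein kinases. This served as a counter-screen for MK2 specificity.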

[2] = molecular target: T2, 380 human recombinant protein kinases (Homo sapiens, UniProt P00519, M351T); conditions: Abl (M351T)(h), read-out: Inhibition rate
T2 construct: purchased Eurofins (Celle Lévescault)
Procedure, shortened: as §1

[3] = molecular target: T3, 380 human recombinant protein kinases (Homo sapiens, UniProt Q16513); conditions: PRK2(h), read-out: Inhibition rate
T3 construct: purchased Eurofins (Celle Lévescault)
Procedure, shortened: as §1

[4] = molecular target: T4, 380 human recombinant protein kinases (Homo sapiens, UniProt Q8IWQ3); conditions: BrSK2(h), read-out: Inhibition rate
T4 construct: purchased Eurofins (Celle Lévescault)
T4 sequence (Q8IWQ3 1-736): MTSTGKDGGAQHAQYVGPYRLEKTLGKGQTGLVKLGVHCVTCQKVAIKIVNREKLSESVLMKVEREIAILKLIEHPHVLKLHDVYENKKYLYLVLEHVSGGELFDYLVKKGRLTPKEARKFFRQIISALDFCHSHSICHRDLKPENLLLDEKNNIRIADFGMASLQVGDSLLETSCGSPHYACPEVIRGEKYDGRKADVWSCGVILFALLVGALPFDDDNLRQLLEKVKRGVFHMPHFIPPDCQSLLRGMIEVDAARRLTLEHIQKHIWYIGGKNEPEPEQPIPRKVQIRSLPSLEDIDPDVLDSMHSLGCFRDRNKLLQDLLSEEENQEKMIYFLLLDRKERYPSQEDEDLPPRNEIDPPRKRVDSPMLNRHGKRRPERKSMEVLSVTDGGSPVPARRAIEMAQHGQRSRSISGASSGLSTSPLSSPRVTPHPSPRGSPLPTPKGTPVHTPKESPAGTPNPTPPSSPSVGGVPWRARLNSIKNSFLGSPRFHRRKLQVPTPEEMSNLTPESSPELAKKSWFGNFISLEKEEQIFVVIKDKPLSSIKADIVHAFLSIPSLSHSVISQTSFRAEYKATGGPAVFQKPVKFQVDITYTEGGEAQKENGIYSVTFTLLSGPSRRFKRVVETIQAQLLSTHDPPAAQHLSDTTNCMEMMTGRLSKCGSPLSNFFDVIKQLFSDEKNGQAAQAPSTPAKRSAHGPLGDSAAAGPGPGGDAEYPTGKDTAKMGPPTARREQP
Procedure, shortened: as §1

[5] = molecular target: T5, 380 human recombinant protein kinases (Homo sapiens, UniProt Q99759); conditions: MEKK3(h), read-out: Inhibition rate
T5 construct: purchased Eurofins (Celle Lévescault)
T5 sequence (Q99759 1-626): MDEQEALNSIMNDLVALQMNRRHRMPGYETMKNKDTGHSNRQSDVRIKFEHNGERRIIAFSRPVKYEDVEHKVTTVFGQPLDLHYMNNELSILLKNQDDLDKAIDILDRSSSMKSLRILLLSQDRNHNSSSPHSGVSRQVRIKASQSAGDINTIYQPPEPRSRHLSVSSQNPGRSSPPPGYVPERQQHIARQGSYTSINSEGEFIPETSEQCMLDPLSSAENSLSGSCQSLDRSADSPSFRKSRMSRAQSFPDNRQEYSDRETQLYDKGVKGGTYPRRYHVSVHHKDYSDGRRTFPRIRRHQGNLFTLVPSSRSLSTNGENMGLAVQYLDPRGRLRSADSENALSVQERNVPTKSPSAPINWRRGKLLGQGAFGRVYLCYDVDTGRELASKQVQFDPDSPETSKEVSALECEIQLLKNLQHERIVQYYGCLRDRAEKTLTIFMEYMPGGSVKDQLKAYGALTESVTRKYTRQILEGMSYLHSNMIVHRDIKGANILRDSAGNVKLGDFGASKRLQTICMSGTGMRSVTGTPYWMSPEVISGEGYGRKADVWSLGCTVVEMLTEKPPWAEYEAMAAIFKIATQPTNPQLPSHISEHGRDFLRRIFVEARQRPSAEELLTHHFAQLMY
Procedure, shortened: as §1

T3 sequence (Q16513 whole entry): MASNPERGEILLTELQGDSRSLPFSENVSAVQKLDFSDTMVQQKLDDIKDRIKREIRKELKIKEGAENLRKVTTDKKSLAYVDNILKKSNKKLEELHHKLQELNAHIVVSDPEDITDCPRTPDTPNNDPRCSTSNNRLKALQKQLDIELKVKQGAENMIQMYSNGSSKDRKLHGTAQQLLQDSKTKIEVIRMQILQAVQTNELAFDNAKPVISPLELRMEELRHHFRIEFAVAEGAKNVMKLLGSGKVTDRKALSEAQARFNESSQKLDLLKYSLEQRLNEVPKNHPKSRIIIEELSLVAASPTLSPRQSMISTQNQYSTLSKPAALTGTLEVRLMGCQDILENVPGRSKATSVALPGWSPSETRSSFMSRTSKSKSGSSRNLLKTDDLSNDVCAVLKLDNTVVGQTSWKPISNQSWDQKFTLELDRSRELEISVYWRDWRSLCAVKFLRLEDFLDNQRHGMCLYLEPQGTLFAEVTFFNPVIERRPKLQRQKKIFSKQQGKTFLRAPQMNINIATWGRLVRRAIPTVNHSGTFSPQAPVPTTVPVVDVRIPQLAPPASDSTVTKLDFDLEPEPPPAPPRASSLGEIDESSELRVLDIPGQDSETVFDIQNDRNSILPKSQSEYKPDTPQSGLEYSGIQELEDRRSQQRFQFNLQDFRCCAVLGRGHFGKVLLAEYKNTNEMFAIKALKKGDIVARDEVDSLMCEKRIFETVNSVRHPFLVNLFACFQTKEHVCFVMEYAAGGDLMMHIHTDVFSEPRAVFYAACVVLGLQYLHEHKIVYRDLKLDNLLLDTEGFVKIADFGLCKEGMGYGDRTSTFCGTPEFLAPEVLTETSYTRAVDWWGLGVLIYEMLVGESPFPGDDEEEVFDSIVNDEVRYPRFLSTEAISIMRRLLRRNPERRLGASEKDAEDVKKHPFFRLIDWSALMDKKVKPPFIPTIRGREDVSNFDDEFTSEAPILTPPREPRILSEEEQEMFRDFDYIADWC

SMILES: C=CC(=O)Nc1cc(-c2cc(-c3cc4c([nH]3)CCNC4=O)ccn2)ccc1OC(F)(F)F [compound 11]
- inhibition at 0.01 µM ([1]; 10 nM): 9%
- inhibition at 0.1 µM ([1]; 100 nM): 4%
- inhibition at 1 µM ([1]; 1000 nM): 33%
- inhibition at 0.01 µM ([2]; 10 nM): 9%
- inhibition at 0.1 µM ([2]; 100 nM): 2%
- inhibition at 1 µM ([2]; 1000 nM): 22%
- inhibition at 0.01 µM ([3]; 10 nM): -2%
- inhibition at 0.1 µM ([3]; 100 nM): 3%
- inhibition at 1 µM ([3]; 1000 nM): 5%
- inhibition at 0.01 µM ([4]; 10 nM): -2%
- inhibition at 0.1 µM ([4]; 100 nM): 6%
- inhibition at 1 µM ([4]; 1000 nM): 26%
- inhibition at 0.01 µM ([5]; 10 nM): -5%
- inhibition at 0.1 µM ([5]; 100 nM): 11%
- inhibition at 1 µM ([5]; 1000 nM): 12%
